# Results taken from the supplement of paper PMC10307832.
# Key:
# Assay in all cases: relative viability (nuclei count vs DMSO), 5 days (fraction); higher = more cells survive
# NCI-H596 = test system: NCI-H596
# How it was run: (§1)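 For relative viability, nuclei counts in treated wells were divided by those in vehicle wells. Lung cancer cell lines had been pin-tool dosed in 1536-well plates the day after seeding and cultured for 5 days, then fixed and stained in one step (final 0.05% Triton X-100, 1% formaldehyde, 1 ug/ml Hoechst) and imaged at 4×. Doses were one drug alone or a fixed anchor-drug dose plus five library-drug doses (not always all listed) in √10 steps, and values are duplicate-plate medians.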
# HOP-62 = test system: HOP-62
# How it was run: as §1
# NCI-H1944 = test system: NCI-H1944
# How it was run: as §1
# NCI-H1437 = test system: NCI-H1437
# How it was run: as §1
# NCI-H3122 = test system: NCI-H3122
# How it was run: as §1
# COR-L23 = test system: COR-L23
# How it was run: as §1
# NCI-H661 = test system: NCI-H661
# How it was run: as §1
# NCI-H1650 = test system: NCI-H1650
# How it was run: as §1
# NCI-H1395 = test system: NCI-H1395
# How it was run: as §1
# NCI-H2087 = test system: NCI-H2087
# How it was run: as §1
# NCI-H1793 = test system: NCI-H1793
# How it was run: as §1
# NCI-H441 = test system: NCI-H441
# How it was run: as §1
# NCI-H2126 = test system: NCI-H2126
# How it was run: as §1
# EPLC-272H = test system: EPLC-272H
# How it was run: as §1
# HCC-78 = test system: HCC-78
# How it was run: as §1
# NCI-H1666 = test system: NCI-H1666
# How it was run: as §1
# ChaGo-K-1 = test system: ChaGo-K-1
# How it was run: as §1
# LXF-289 = test system: LXF-289
# How it was run: as §1
# HARA = test system: HARA
# How it was run: as §1
# LCLC-97TM1 = test system: LCLC-97TM1
# How it was run: as §1
# PC-14 = test system: PC-14
# How it was run: as §1
# H3255 = test system: H3255
# How it was run: as §1
# NCI-H2085 = test system: NCI-H2085
# How it was run: as §1
smiles,measurement,setting,value
CN1CCN(CCOc2cc(OC3CCOCC3)c3c(Nc4c(Cl)ccc5c4OCO5)ncnc3c2)CC1 [Saracatinib] + COc1cc2c(Oc3ccc(NC(=O)C4(C(=O)Nc5ccc(F)cc5)CC4)cc3F)ccnc2cc1OCCCN1CCOCC1 [Foretinib] (partner 0.25 µM),relative viability,NCI-H596; first compound 0.02 µM,0.874
same,relative viability,NCI-H596; first compound 0.2 µM,0.641
same,relative viability,NCI-H596; first compound 0.6325 µM,0.826
same,relative viability,NCI-H596; first compound 2 µM,0.591
same,relative viability,HOP-62; first compound 0.02 µM,1.17
same,relative viability,HOP-62; first compound 0.2 µM,1.02
same,relative viability,HOP-62; first compound 0.6325 µM,1.13
same,relative viability,HOP-62; first compound 2 µM,1.16
same,relative viability,NCI-H1944; first compound 0.02 µM,0.868
same,relative viability,NCI-H1944; first compound 0.6325 µM,0.935
same,relative viability,NCI-H1944; first compound 2 µM,0.549
same,relative viability,NCI-H1437; first compound 0.02 µM,1.27
same,relative viability,NCI-H1437; first compound 0.2 µM,1.22
same,relative viability,NCI-H1437; first compound 0.6325 µM,1.3
same,relative viability,NCI-H1437; first compound 2 µM,1.3
same,relative viability,NCI-H3122; first compound 0.02 µM,0.927
same,relative viability,NCI-H3122; first compound 0.2 µM,0.891
same,relative viability,NCI-H3122; first compound 0.6325 µM,0.9
same,relative viability,NCI-H3122; first compound 2 µM,0.66
same,relative viability,COR-L23; first compound 0.02 µM,0.905
same,relative viability,COR-L23; first compound 0.2 µM,0.917
same,relative viability,COR-L23; first compound 0.6325 µM,0.87
same,relative viability,COR-L23; first compound 2 µM,0.886
same,relative viability,NCI-H661; first compound 0.02 µM,1.02
same,relative viability,NCI-H661; first compound 0.2 µM,0.948
same,relative viability,NCI-H661; first compound 0.6325 µM,0.993
same,relative viability,NCI-H661; first compound 2 µM,0.45
same,relative viability,NCI-H1650; first compound 0.02 µM,0.948
same,relative viability,NCI-H1650; first compound 0.2 µM,0.775
same,relative viability,NCI-H1650; first compound 0.6325 µM,0.46
same,relative viability,NCI-H1650; first compound 2 µM,0.456
same,relative viability,NCI-H1395; first compound 0.02 µM,1.08
same,relative viability,NCI-H1395; first compound 0.2 µM,0.908
same,relative viability,NCI-H1395; first compound 0.6325 µM,1.03
same,relative viability,NCI-H1395; first compound 2 µM,0.856
same,relative viability,NCI-H2087; first compound 0.02 µM,1.07
same,relative viability,NCI-H2087; first compound 0.2 µM,0.874
same,relative viability,NCI-H2087; first compound 0.6325 µM,1.1
same,relative viability,NCI-H2087; first compound 2 µM,1.07
same,relative viability,NCI-H1793; first compound 0.02 µM,0.685
same,relative viability,NCI-H1793; first compound 0.6325 µM,0.777
same,relative viability,NCI-H1793; first compound 2 µM,0.454
same,relative viability,NCI-H441; first compound 0.02 µM,1.04
same,relative viability,NCI-H441; first compound 0.2 µM,0.985
same,relative viability,NCI-H441; first compound 0.6325 µM,1.08
same,relative viability,NCI-H441; first compound 2 µM,1.13
same,relative viability,NCI-H2126; first compound 0.02 µM,1.15
same,relative viability,NCI-H2126; first compound 0.2 µM,1.22
same,relative viability,NCI-H2126; first compound 0.6325 µM,1.17
same,relative viability,NCI-H2126; first compound 2 µM,1.07
same,relative viability,EPLC-272H; first compound 0.02 µM,0.403
same,relative viability,EPLC-272H; first compound 0.2 µM,0.73
same,relative viability,EPLC-272H; first compound 0.6325 µM,0.646
same,relative viability,EPLC-272H; first compound 2 µM,0.435
same,relative viability,HCC-78; first compound 0.02 µM,0.534
same,relative viability,HCC-78; first compound 0.6325 µM,0.678
same,relative viability,HCC-78; first compound 2 µM,0.413
same,relative viability,NCI-H1666; first compound 0.02 µM,1.04
same,relative viability,NCI-H1666; first compound 0.2 µM,0.836
same,relative viability,NCI-H1666; first compound 0.6325 µM,1.27
same,relative viability,NCI-H1666; first compound 2 µM,1.14
same,relative viability,ChaGo-K-1; first compound 0.02 µM,0.943
same,relative viability,ChaGo-K-1; first compound 0.2 µM,0.699
same,relative viability,ChaGo-K-1; first compound 0.6325 µM,0.973
same,relative viability,ChaGo-K-1; first compound 2 µM,0.874
same,relative viability,LXF-289; first compound 0.02 µM,0.922
same,relative viability,LXF-289; first compound 0.2 µM,0.748
same,relative viability,LXF-289; first compound 0.6325 µM,1.04
same,relative viability,LXF-289; first compound 2 µM,0.891
same,relative viability,HARA; first compound 0.02 µM,0.873
same,relative viability,HARA; first compound 0.2 µM,0.751
same,relative viability,HARA; first compound 0.6325 µM,0.739
same,relative viability,HARA; first compound 2 µM,0.368
same,relative viability,LCLC-97TM1; first compound 0.02 µM,1.06
same,relative viability,LCLC-97TM1; first compound 0.2 µM,0.763
same,relative viability,LCLC-97TM1; first compound 0.6325 µM,0.96
same,relative viability,LCLC-97TM1; first compound 2 µM,0.825
same,relative viability,PC-14; first compound 0.02 µM,0.986
same,relative viability,PC-14; first compound 0.2 µM,0.721
same,relative viability,PC-14; first compound 0.6325 µM,0.612
same,relative viability,PC-14; first compound 2 µM,0.209
same,relative viability,H3255; first compound 0.02 µM,0.97
same,relative viability,H3255; first compound 0.2 µM,0.749
same,relative viability,H3255; first compound 0.6325 µM,0.987
same,relative viability,H3255; first compound 2 µM,0.3
same,relative viability,NCI-H2085; first compound 0.02 µM,0.986
same,relative viability,NCI-H2085; first compound 0.2 µM,0.839
same,relative viability,NCI-H2085; first compound 0.6325 µM,0.751
same,relative viability,NCI-H2085; first compound 2 µM,0.668
